# Test results taken from ChEMBL document CHEMBL4715896, “A styrylpyrone dimer isolated from Aniba heringeri causes apoptosis in MDA-MB-231 triple-negative breast cancer cells” (Bioorg Med Chem, 2021).
# Active and inactive are the calls of the source. No cut-off for these calls is given here.
# Columns and labels:
# [1] = tested on: MDA-MB-231; assay: Growth inhibition of human MDA-MB-231 cells incubated for 48 hrs by sulforhodamine B assay; format: functional
# [2] = tested on: MCF7; assay: Growth inhibition of human MCF7 cells incubated for 48 hrs by sulforhodamine B assay; format: functional
# [3] = tested on: PC-3; assay: Growth inhibition of human PC3 cells incubated for 48 hrs by sulforhodamine B assay; format: functional
# [4] = tested on: 786-0; assay: Growth inhibition of human 786-0 cells incubated for 48 hrs by sulforhodamine B assay; format: functional
# [5] = tested on: HT-29; assay: Growth inhibition of human HT-29 cells incubated for 48 hrs by sulforhodamine B assay; format: functional
# [6] = Cytotoxicity against mouse NIH/3T3 cells assessed as growth inhibition after 48 hrs by SRB assay; format: cell-based, NIH3T3
# [7] = Selectivity index, ratio of GI50 for cytotoxicity against mouse NIH/3T3 cells to GI50 for human HT-29 cells; format: toxicity, cell-based; settings: NIH/3T3 cells and HT-29 cells, read-out: RatioGI50
# [8] = Selectivity index, ratio of GI50 for cytotoxicity against mouse NIH/3T3 cells to GI50 for human 786-0 cells
# [9] = Selectivity index, ratio of GI50 for cytotoxicity against mouse NIH/3T3 cells to GI50 for human MDA-MB-231 cells; format: toxicity, cell-based; settings: NIH/3T3 cells and MDA-MB-231 cells, read-out: RatioGI50
# [10] = Selectivity index, ratio of GI50 for cytotoxicity against mouse NIH/3T3 cells to GI50 for human PC3 cells; format: toxicity, cell-based; settings: NIH/3T3 cells and PC3 cells, read-out: RatioGI50
# [11] = Selectivity index, ratio of GI50 for cytotoxicity against mouse NIH/3T3 cells to GI50 for human MCF7 cells; format: toxicity, cell-based; settings: NIH/3T3 cells and MCF7 cells, read-out: RatioGI50
# [12] = tested on: MDA-MB-231; assay: Induction of morphological changes in human MDA-MB-231 cells assessed as formation of coarse clusters at 4.4 uM after 72 hrs by acridine orange/ethidium bromide double staining-based fluorescence/phase contrast microscopic analysis; format: functional, cell-based
# [13] = tested on: MDA-MB-231; assay: Induction of apoptosis in human MDA-MB-231 cells assessed as formation of apoptotic bodies after 48 hrs by Hoechst 33342 staining based analysis relative to control; format: functional
# [14] = tested on: MDA-MB-231; assay: Induction of morphological changes in human MDA-MB-231 cells assessed as loss of cell cell interaction at 63 uM after 72 hrs by acridine orange/ethidium bromide double staining-based fluorescence/phase contrast microscopic analysis; format: functional
# [15] = tested on: MDA-MB-231; assay: Induction of morphological changes in human MDA-MB-231 cells assessed as reduction in cytoplasmic extension at 4.4 uM after 48 hrs by acridine orange/ethidium bromide double staining-based fluorescence/phase contrast microscopic analysis; format: functional, cell-based
# [16] = tested on: MDA-MB-231; assay: Induction of apoptosis in human MDA-MB-231 cells assessed as reduction in bcl2 gene expression at 63 uM after 48 hrs by RT-qPCR analysis; format: functional, cell-based
# [17] = tested on: MDA-MB-231; assay: Induction of morphological changes in human MDA-MB-231 cells assessed as loss of elongated spindle morphology at 4.4 uM after 48 hrs by acridine orange/ethidium bromide double staining-based fluorescence/phase contrast microscopic analysis; format: functional, cell-based
# [18] = tested on: MDA-MB-231; assay: Induction of apoptosis in human MDA-MB-231 cells assessed as appearance of apoptotic bodies at 63 uM after 72 hrs by acridine orange/ethidium bromide double staining-based fluorescence/phase contrast microscopic analysis; format: functional, cell-based
# [19] = tested on: MDA-MB-231; assay: Induction of apoptosis in human MDA-MB-231 cells assessed as viable cells at 63 uM after 72 hrs by Annexin-V/7-AAD staining based flow cytometry relative to control; format: functional; settings: read-out: Activity
# [20] = tested on: MDA-MB-231; assay: Induction of apoptosis in human MDA-MB-231 cells assessed as late apoptotic cells at 63 uM after 48 hrs by Annexin-V/7-AAD staining based flow cytometry relative to control; format: functional
# [21] = tested on: MDA-MB-231; assay: Induction of apoptosis in human MDA-MB-231 cells assessed as chromatin condensation at 63 uM after 72 hrs by acridine orange/ethidium bromide double staining-based fluorescence/phase contrast microscopic analysis; format: functional, cell-based
# [22] = tested on: MDA-MB-231; assay: Induction of apoptosis in human MDA-MB-231 cells assessed as activation of caspase-3 at 63 uM after 48 hrs by flow cytometry; format: functional, cell-based
# [23] = tested on: MDA-MB-231; assay: Induction of apoptosis in human MDA-MB-231 cells assessed as viable cells at 63 uM after 48 hrs by Annexin-V/7-AAD staining based flow cytometry relative to control; format: functional; settings: read-out: Activity
# [24] = tested on: MDA-MB-231; assay: Induction of morphological changes in human MDA-MB-231 cells assessed as reduction in cell contact at 4.4 uM after 48 hrs by acridine orange/ethidium bromide double staining-based fluorescence/phase contrast microscopic analysis; format: functional
# [25] = tested on: MDA-MB-231; assay: Induction of apoptosis in human MDA-MB-231 cells assessed as chromatin condensation at 63 uM after 48 hrs by acridine orange/ethidium bromide double staining-based fluorescence/phase contrast microscopic analysis; format: functional, cell-based
# [26] = tested on: MDA-MB-231; assay: Induction of morphological changes in human MDA-MB-231 cells assessed as reduction in number of cells at 63 uM after 72 hrs by acridine orange/ethidium bromide double staining-based fluorescence/phase contrast microscopic analysis; format: functional, cell-based
# [27] = tested on: MDA-MB-231; assay: Induction of morphological changes in human MDA-MB-231 cells assessed as proliferation arrest at 4.4 uM after 48 hrs by acridine orange/ethidium bromide double staining-based fluorescence/phase contrast microscopic analysis; format: functional, cell-based
# [28] = tested on: MDA-MB-231; assay: Induction of apoptosis in human MDA-MB-231 cells assessed as necrotic cells at 63 uM after 48 hrs by Annexin-V/7-AAD staining based flow cytometry relative to control; format: functional
# [29] = tested on: MDA-MB-231; assay: Induction of apoptosis in human MDA-MB-231 cells assessed as appearance of apoptotic bodies at 63 uM after 48 hrs by acridine orange/ethidium bromide double staining-based fluorescence/phase contrast microscopic analysis; format: functional, cell-based
# [30] = tested on: MDA-MB-231; assay: Induction of apoptosis in human MDA-MB-231 cells assessed as apoptotic cells at 63 uM after 48 hrs by Annexin-V/7-AAD staining based flow cytometry relative to control; format: functional
# [31] = tested on: MDA-MB-231; assay: Induction of apoptosis in human MDA-MB-231 cells assessed as activation of caspase-3 at 63 uM after 72 hrs by flow cytometry relative to untreated control; format: functional
# [32] = tested on: MDA-MB-231; assay: Induction of apoptosis in human MDA-MB-231 cells assessed as formation of apoptotic bodies after 72 hrs by Hoechst 33342 staining based analysis relative to control; format: functional
# [33] = tested on: MDA-MB-231; assay: Induction of apoptosis in human MDA-MB-231 cells assessed as late apoptotic cells at 63 uM after 72 hrs by Annexin-V/7-AAD staining based flow cytometry relative to control; format: functional
# [34] = tested on: MDA-MB-231; assay: Induction of morphological changes in human MDA-MB-231 cells assessed as formation of atypical cell clusters at 4.4 uM after 72 hrs by acridine orange/ethidium bromide double staining-based fluorescence/phase contrast microscopic analysis; format: functional
# [35] = tested on: MDA-MB-231; assay: Induction of morphological changes in human MDA-MB-231 cells assessed as cells with irregular shape at 63 uM after 72 hrs by acridine orange/ethidium bromide double staining-based fluorescence/phase contrast microscopic analysis; format: functional, cell-based
# [36] = tested on: MDA-MB-231; assay: Induction of apoptosis in human MDA-MB-231 cells assessed as apoptotic cells at 63 uM after 72 hrs by Annexin-V/7-AAD staining based flow cytometry relative to control; format: functional
# [37] = tested on: MDA-MB-231; assay: Induction of apoptosis in human MDA-MB-231 cells assessed as nuclei fragmentation at 63 uM after 72 hrs by acridine orange/ethidium bromide double staining-based fluorescence/phase contrast microscopic analysis; format: functional, cell-based
# [38] = tested on: MDA-MB-231; assay: Induction of apoptosis in human MDA-MB-231 cells assessed as nuclei fragmentation at 63 uM after 48 hrs by acridine orange/ethidium bromide double staining-based fluorescence/phase contrast microscopic analysis; format: functional, cell-based
# [39] = tested on: MDA-MB-231; assay: Induction of morphological changes in human MDA-MB-231 cells assessed as loss of cell adhesion at 63 uM after 72 hrs by acridine orange/ethidium bromide double staining-based fluorescence/phase contrast microscopic analysis; format: functional
# [40] = tested on: MDA-MB-231; assay: Induction of apoptosis in human MDA-MB-231 cells assessed as effect on BIRC5 mRNA expression at 63 uM after 48 hrs by RT-qPCR analysis; format: functional, cell-based
# [41] = tested on: MDA-MB-231; assay: Induction of apoptosis in human MDA-MB-231 cells assessed as necrotic cells at 63 uM after 72 hrs by Annexin-V/7-AAD staining based flow cytometry relative to control; format: functional
# [42] = tested on: MDA-MB-231; assay: Induction of apoptosis in human MDA-MB-231 cells assessed as increase in Bax/Bcl2 gene expression at 63 uM after 48 hrs by RT-qPCR analysis; format: functional, cell-based
# [43] = tested on: MDA-MB-231; assay: Induction of morphological changes in human MDA-MB-231 cells assessed as reduction in number of cells at 63 uM after 48 hrs by acridine orange/ethidium bromide double staining-based fluorescence/phase contrast microscopic analysis; format: functional, cell-based
# [44] = tested on: MDA-MB-231; assay: Induction of apoptosis in human MDA-MB-231 cells assessed as increase in Bax gene expression at 63 uM after 48 hrs by RT-qPCR analysis; format: functional, cell-based
smiles,measurement,setting,value
COc1cccc2c1C(=O)c1c(O)c3c(c(O)c1C2=O)C[C@@](O)(C(=O)CO)C[C@@H]3O[C@H]1C[C@H](N)[C@H](O)[C@H](C)O1 [DOXORUBICIN],GI50,[1],1.84 µM
same,GI50,[2],0.25 µM
same,GI50,[3],0.24 µM
same,GI50,[4],0.16 µM
same,GI50,[5],0.28 µM
same,GI50 at 48 h,[6],0.28 µM
O=c1cccc(/C=C/c2ccccc2)o1,GI50,[1],98 µM
same,selectivity ratio,[7],8.73
same,RatioGI50,[8],7.24
same,GI50,[2],107 µM
same,GI50,[3],90.4 µM
same,selectivity ratio at 48 h,[9],12.9
same,GI50,[4],176 µM
same,selectivity ratio,[10],14
same,selectivity ratio at 48 h,[11],11.8
same,GI50,[5],145 µM
same,GI50 at 48 h,[6],1270 µM
O=C1C=C[C@@H]2[C@H](c3ccccc3)[C@@H](c3cccc(=O)o3)[C@]2(/C=C/c2ccccc2)O1,GI50,[1],4.42 µM
same,selectivity ratio,[7],2.26
same,Activity,[12],Active
same,Activity,[13],56%
same,Activity,[14],Active
same,Activity,[15],Active
same,Activity,[16],inactive
same,Activity,[17],Active
same,Activity,[18],Active
same,viability at 63 µM,[19],50%
same,Activity,[20],13%
same,Activity,[21],Active
same,RatioGI50,[8],2.55
same,Activity,[22],Active
same,GI50,[2],50.2 µM
same,viability at 63 µM,[23],28.4%
same,Activity,[24],Active
same,Activity,[25],Active
same,Activity,[26],Active
same,Activity,[27],Active
same,Activity,[28],2%
same,Activity,[29],Active
same,GI50,[3],69.5 µM
same,selectivity ratio at 48 h,[9],35.7
same,Activity,[30],17%
same,GI50,[4],61.7 µM
same,fold change (FC),[31],4
same,Activity,[32],33%
same,selectivity ratio,[10],2.27
same,Activity,[33],37%
same,Activity,[34],Active
same,Activity,[35],Active
same,Activity,[36],11%
same,selectivity ratio at 48 h,[11],3.14
same,GI50,[5],69.7 µM
same,Activity,[37],Active
same,Activity,[38],Active
same,Activity,[39],Active
same,GI50 at 48 h,[6],158 µM
same,Activity,[40],Active
same,Activity,[41],5%
same,Activity,[42],Active
same,Activity,[43],Active
same,Activity,[44],Active
O=c1cccc([C@H]2[C@H](c3ccccc3)[C@H](c3cccc(=O)o3)[C@H]2c2ccccc2)o1,GI50,[1],34.2 µM
same,selectivity ratio,[7],5.67
same,RatioGI50,[8],0.88
same,GI50,[2],12.2 µM
same,GI50,[3],96.3 µM
same,selectivity ratio at 48 h,[9],14.7
same,GI50,[4],567 µM
same,selectivity ratio,[10],5.22
same,selectivity ratio at 48 h,[11],41.1
same,GI50,[5],88.7 µM
same,GI50 at 48 h,[6],503 µM
